# Literature values, collected in patent publication US20150269865A1, “SYSTEMS AND METHODS FOR PERSONALIZED NUTRIMERS” (priority 2014, published 2015).
# How the values were obtained:
# [1] = orally administered, human absorption kinetic studies, PMID 3257913
# [2] = in vivo
# [3] = PMID 9630738; compared with folic acid
# [4] = PMID 9630738
# MTHFR = MTHFR (Homo sapiens, UniProt P42898); conditions: cofactor of MTHFR or needs to be metabolized into Methyl folate
# [5] = PMID 21735411; compared with Ergocalciferol (vitamin D2)
# [6] = PMID23482308
# [7] = PMID23482308; remark: listed apart in the source
# [8] = human subject treated even for a few months; PMID 23751310
# copper absorption = conditions: PMID 1726403
# [9] = in vivo; remark: listed apart in the source
# [10] = human, in vivo
# MTHFR, sequence (P42898 whole entry): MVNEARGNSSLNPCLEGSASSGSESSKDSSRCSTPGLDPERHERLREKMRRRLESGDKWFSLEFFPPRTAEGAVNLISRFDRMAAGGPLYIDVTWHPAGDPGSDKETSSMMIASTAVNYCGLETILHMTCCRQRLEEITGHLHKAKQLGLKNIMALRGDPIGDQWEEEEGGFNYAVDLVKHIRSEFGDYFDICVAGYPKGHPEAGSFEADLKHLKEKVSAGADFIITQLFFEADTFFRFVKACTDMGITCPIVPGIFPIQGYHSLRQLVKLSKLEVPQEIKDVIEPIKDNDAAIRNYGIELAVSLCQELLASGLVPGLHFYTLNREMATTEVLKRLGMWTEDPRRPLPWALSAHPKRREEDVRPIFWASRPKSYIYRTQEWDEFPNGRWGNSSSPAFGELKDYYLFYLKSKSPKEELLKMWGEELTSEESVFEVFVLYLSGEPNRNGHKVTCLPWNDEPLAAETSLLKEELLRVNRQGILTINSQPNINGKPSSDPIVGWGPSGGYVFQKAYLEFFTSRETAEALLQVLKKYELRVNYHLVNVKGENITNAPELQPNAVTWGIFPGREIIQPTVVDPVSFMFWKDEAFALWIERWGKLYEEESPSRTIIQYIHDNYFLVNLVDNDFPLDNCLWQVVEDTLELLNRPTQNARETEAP
compound,measurement,setting,value
Nc1nc(=O)c2c([nH]1)NCC(CNc1ccc(C(=O)N[C@@H](CCC(=O)O)C(=O)O)cc1)N2C=O (mixture of isomers) [Folinic acid],bioavailability,[1],92%
same,transport through the blood brain barrier into the central nervous system,[2],readily transported
same,Therapeutic effects,[3],more metabolically
same,Stability: half-life in the body compared with folic acid,[4],longer half-life in
same,Cofactor,MTHFR,Not a cofactor.
C=C1CC[C@H](O)C/C1=C/C=C1\CCC[C@]2(C)[C@@H]([C@H](C)CCCC(C)C)CC[C@@H]12 [Cholecalciferol],effect on mortality,[5],decrease mortality
"Nc1nc2ncc(CNc3ccc(C(=O)N[C@@H](CCC(=O)O)C(=O)O)cc3)nc2c(=O)[nH]1 [Folic acid (FA), Folic acid]",Stability upon exposure to heat compared with natural forms of folate in the diet,[6],FA is more stable
same,Cofactor,MTHFR,Not a cofactor.
same,Side effects: masking of vitamin B12 deficiency,[7],“does not mask
CN(C)C(=N)N=C(N)N [metformin],effect on vitamin B12 and folate levels,[8],decrease of vitamin B12 and folate
[Zn] [zinc],effect on copper absorption,copper absorption,inhibits copper absorption
Vitamin E,effect on absorption of desipramine (Norpramin),[9],interferes with the absorption
cobalamin [B12],B12 intake above which absorbance declines with increased supplementation,[10],about 10 mcg
